In US10328077B2 (CELGENE CORPORATION, priority 2016, dated 2019):
Like-named read-outs stand apart in the source and are kept apart here.

Tests used:
in vivo = conditions: Crl:CD1(ICR), mouse, plasma, po, 15 mg/kg
[1] = Pharmacokinetics after IV and oral dose, monkeys; format: in vivo; conditions: cynomolgus monkey, plasma, male; for half-life: read-out: t1/2, z (converted)
[2] = tested on: LXFS 573 SCLC patient-derived xenograft
[3] = Pharmacokinetics after IV and oral dose, dogs; format: in vivo, Beagle dogs; conditions: dog, plasma
MKL-1 hMCC xenograft = format: in vivo; conditions: 5 mg/kg PO 5 on/2 off
[4] = Pharmacokinetics after IV and oral dose, rats; format: in vivo, Sprague Dawley rats; conditions: for half-life: read-out: t1/2, z (converted)
NCI-H1417 SCLC xenograft = NCI-H1417 SCLC xenograft efficacy, athymic nude mice; format: in vivo; conditions: for % TGI: Day 65; for mean body weight gain: end of study
LXFS 1129 SCLC PDX model = test: LXFS 1129 SCLC PDX model; parameters: species or system mice; conditions: female, NMRI-Foxnlnu, mouse, in vivo, oral, read-out: AUC0-24
[5] = tested on: LXFS 1129 SCLC patient-derived xenograft; test: LXFS 1129 SCLC PDX model; parameters: species or system mice; conditions: mouse, in vivo
hERG potassium channel = hERG potassium channel (Homo sapiens (Human), UniProt Q12809); test: in vitro; conditions: HEK293 cells stably expressing hERG channels
Sequence of hERG potassium channel (Q12809 whole entry): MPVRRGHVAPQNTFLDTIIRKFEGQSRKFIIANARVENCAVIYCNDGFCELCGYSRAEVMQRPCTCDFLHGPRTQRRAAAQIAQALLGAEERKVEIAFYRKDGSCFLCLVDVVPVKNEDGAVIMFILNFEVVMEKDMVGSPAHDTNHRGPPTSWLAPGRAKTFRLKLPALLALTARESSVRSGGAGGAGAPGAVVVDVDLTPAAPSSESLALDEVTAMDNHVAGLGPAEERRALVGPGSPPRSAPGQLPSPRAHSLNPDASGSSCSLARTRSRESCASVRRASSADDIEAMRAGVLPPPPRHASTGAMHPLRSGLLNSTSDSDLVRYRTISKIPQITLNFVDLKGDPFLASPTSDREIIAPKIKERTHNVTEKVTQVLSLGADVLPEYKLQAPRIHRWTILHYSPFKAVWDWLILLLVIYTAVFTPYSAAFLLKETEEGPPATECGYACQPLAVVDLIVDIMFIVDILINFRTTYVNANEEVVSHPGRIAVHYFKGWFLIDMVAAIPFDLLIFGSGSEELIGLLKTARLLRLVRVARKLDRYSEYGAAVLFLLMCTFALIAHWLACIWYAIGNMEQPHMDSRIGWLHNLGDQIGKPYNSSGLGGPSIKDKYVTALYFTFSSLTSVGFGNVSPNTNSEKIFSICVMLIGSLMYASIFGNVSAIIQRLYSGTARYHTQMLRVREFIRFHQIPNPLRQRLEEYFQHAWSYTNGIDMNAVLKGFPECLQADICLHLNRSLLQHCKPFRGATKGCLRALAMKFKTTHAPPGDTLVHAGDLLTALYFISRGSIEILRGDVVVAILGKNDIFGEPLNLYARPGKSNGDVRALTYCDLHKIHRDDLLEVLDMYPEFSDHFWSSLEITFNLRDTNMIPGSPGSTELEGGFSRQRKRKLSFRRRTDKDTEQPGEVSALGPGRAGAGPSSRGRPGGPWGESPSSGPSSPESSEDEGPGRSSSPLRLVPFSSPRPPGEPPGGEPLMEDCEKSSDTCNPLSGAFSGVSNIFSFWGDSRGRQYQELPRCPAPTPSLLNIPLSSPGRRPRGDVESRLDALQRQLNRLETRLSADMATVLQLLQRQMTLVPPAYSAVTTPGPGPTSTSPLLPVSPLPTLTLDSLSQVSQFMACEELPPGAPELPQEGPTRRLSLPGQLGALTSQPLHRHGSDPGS

[6] = Compound A 5 mg/kg/day PO days 1-133
[7] = Beagle, male, single IV dose 1 mg
[8] = Beagle, male, single oral dose 1 mg base/kg
[9] = Beagle, male, single oral dose 3 mg base/kg
[10] = Beagle, male, single oral dose 6 mg base/kg
[11] = Sprague Dawley, plasma, rat, female, single IV dose 5 mg
[12] = Sprague Dawley, plasma, rat, female, single oral dose 5 mg base/kg
[13] = Sprague Dawley, plasma, rat, female, single oral dose 15 mg base/kg
[14] = Sprague Dawley, plasma, rat, female, single oral dose 50 mg base/kg

SMILES: COc1ccc(-c2c(-c3ccc(C#N)c(F)c3)nc(N3CCC(N)CC3)n(C)c2=O)cc1F [Compound A, 4-[2-(4-amino-piperidin-1-yl)-5-(3-fluoro-4-methoxy-phenyl)-1-methyl-6-oxo-1,6-dihydro-pyrimidin-4-yl]-2-fluoro-benzonitrile]
- AUC(0-t) (in vivo; female): 9680 ng·h/mL
- Cmax (in vivo; female): 850 ng/mL
- AUC(0-t) (in vivo; male): 7960 ng·h/mL
- Cmax (in vivo; male): 628 ng/mL
- AUC(0-inf) ([1]; single IV dose 1 mg): 983 ng·h/mL
- AUC(0-t) ([1]; single IV dose 1 mg): 912 ng·h/mL
- clearance ([1]; single IV dose 1 mg): 18 mL/min/kg
- Vd ([1]; single IV dose 1 mg, mean (SD), read-out: Vss): 17.1 L/kg
- half-life ([1]; single IV dose 1 mg): 12 h
- AUC(0-t) ([1]; single oral dose 5 mg base/kg): 3620 ng·h/mL
- Cmax ([1]; single oral dose 5 mg base/kg): 187 ng/mL
- Tmax ([1]; single oral dose 5 mg base/kg): 6 h
- bioavailability ([1]; single oral dose 5 mg base/kg): 82%
- half-life ([1]; single oral dose 5 mg base/kg): 12.9 h
- % TGD [2, 6]: 217%
- T − C [2, 6]: 91 days
- median TTE [2, 6]: 133 days
- median TTE ([2]; Compound A monotherapy 5 mg/kg PO daily): 133 days
- study survivors ([2]; Compound A monotherapy 5 mg/kg, Day 133, n=8): seven
- MTV of study survivors ([2]; mouse, in vivo): 1064 mm3
- MTV, median tumor volume of study survivors ([2]; mouse, in vivo): (1064) mm^3
- SS, number of study survivors ([2]; mouse, in vivo): 7
- half-life ([3]; Beagle (dogs), IV, non-rodents (dogs, monkeys), read-out: half-life): 12 to 20 h
- bioavailability ([3]; Beagle, po, dogs and monkeys, read-out: oral bioavailability): 82 to 100%
- AUC(0-inf) [3, 7]: 1940 ng·h/mL
- AUC(0-t) [3, 7]: 1300 ng·h/mL
- clearance [3, 7]: 9 mL/min/kg
- Vd ([3]; Beagle, male, single IV dose 1 mg, mean (SD), read-out: Vss): 11.1 L/kg
- half-life ([3]; Beagle, male, single IV dose 1 mg, read-out: t1/2, z (converted)): 15.5 h
- AUC(0-t) [3, 8]: 1090 ng·h/mL
- Cmax [3, 8]: 69 ng/mL
- Tmax [3, 8]: 2 h
- bioavailability ([3]; Beagle, male, single oral dose 1 mg base/kg, read-out: % F): 84%
- half-life ([3]; Beagle, male, single oral dose 1 mg base/kg, read-out: t1/2, z (converted)): 15 h
- AUC(0-t) [3, 9]: 3790 ng·h/mL
- Cmax [3, 9]: 298 ng/mL
- Tmax [3, 9]: 1 h
- bioavailability ([3]; Beagle, male, single oral dose 3 mg base/kg, read-out: % F): 100%
- half-life ([3]; Beagle, male, single oral dose 3 mg base/kg, read-out: t1/2, z (converted)): 19.4 h
- AUC(0-t) [3, 10]: 8790 ng·h/mL
- Cmax [3, 10]: 627 ng/mL
- Tmax [3, 10]: 1 h
- bioavailability ([3]; Beagle, male, single oral dose 6 mg base/kg, read-out: % F): 100%
- half-life ([3]; Beagle, male, single oral dose 6 mg base/kg, read-out: t1/2, z (converted)): 17.8 h
- Median Tumor Volume Day 15 (MKL-1 hMCC xenograft): 880 mm^3
- Median Tumor Volume Diff (Day 15 - Day -3) (MKL-1 hMCC xenograft): 815 mm^3
- systemic clearance ([4]; IV, rats (greater than liver blood flow)): high
- AUC(0-inf) [4, 11]: 733 ng·h/mL
- AUC(0-t) [4, 11]: 680 ng·h/mL
- clearance [4, 11]: 115 mL/min/kg
- Vd ([4]; Sprague Dawley, plasma, rat, female, single IV dose 5 mg, mean (SD), read-out: Vss): 26.2 L/kg
- half-life [4, 11]: 3.6 h
- AUC(0-t) [4, 12]: 222 ng·h/mL
- Cmax [4, 12]: 47 ng/mL
- Tmax [4, 12]: 2 h
- bioavailability [4, 12]: 33%
- half-life [4, 12]: 3 h
- AUC(0-t) [4, 13]: 570 ng·h/mL
- Cmax [4, 13]: 123 ng/mL
- Tmax [4, 13]: 2 h
- bioavailability [4, 13]: 28%
- half-life [4, 13]: 2.9 h
- AUC(0-t) [4, 14]: 4650 ng·h/mL
- Cmax [4, 14]: 621 ng/mL
- Tmax [4, 14]: 6 h
- bioavailability [4, 14]: 74%
- half-life [4, 14]: 3 h
- Median Tumor Volume Day 65 (NCI-H1417 SCLC xenograft; 2.5 mg base/kg PO QDx65): 39.3 mm^3
- Median Tumor Volume Diff. (Day 65 - Day 0) (NCI-H1417 SCLC xenograft; 2.5 mg base/kg PO QDx65): −69.9 mm^3
- % TGI (NCI-H1417 SCLC xenograft; 2.5 mg base/kg PO QDx65): 159%
- TGI (NCI-H1417 SCLC xenograft; 2.5 mg base/kg oral QD×65, Day 65): 159%
- mean body weight gain (NCI-H1417 SCLC xenograft; 2.5 mg base/kg): 1%
- Median Tumor Volume Day 65 (NCI-H1417 SCLC xenograft; 5 mg base/kg PO QDx65): 15.9 mm^3
- Median Tumor Volume Diff. (Day 65 - Day 0) (NCI-H1417 SCLC xenograft; 5 mg base/kg PO QDx65): −92.3 mm^3
- % TGI (NCI-H1417 SCLC xenograft; 5 mg base/kg PO QDx65): 178%
- TGI (NCI-H1417 SCLC xenograft; 5 mg base/kg oral QD×65, Day 65): 178%
- mean body weight gain (NCI-H1417 SCLC xenograft; 5 mg base/kg): 7.5%
- tumors regressed in net volume (NCI-H1417 SCLC xenograft; 2.5 and 5 mg base/kg groups together): 14 out of 15
- AUC(0-t) (LXFS 1129 SCLC PDX model; 1.5 mg base/kg): 243 ng·h/mL
- AUC(0-t) (LXFS 1129 SCLC PDX model; 5 mg base/kg): 1260 ng·h/mL
- mean body weight loss [5]: < 6%
- inhibition at 0.3 µM (hERG potassium channel): 5.9 ± 1.3%
- inhibition at 1 µM (hERG potassium channel): 17.8 ± 0.3%
- inhibition at 3 µM (hERG potassium channel): 47 ± 1.9%
- inhibition at 10 µM (hERG potassium channel): 77.3 ± 0.2%
